Test results from US7902361B2, “Pyrimidin-4-yl-3, 4-thione compounds and their use in therapy” (Cyclacel Limited, priority 2003, dated 2011).
pIC50, pKi: −log10 of the molar value.

Tests used:
Type in all cases: biochemical
CDK1/cyclin B = CDK1/cyclin B (Homo sapiens, UniProt P06493); assay: Kinase assay CDK1/cyclin B (radioactive phosphate incorporation); settings: Ki calculated (Cheng-Prusoff) from experimentally determined IC50 and Km,ATP; read-out: Kinase Inhibition Ki CDK1 - cyclin B
Experimental: (§1) The compounds from the examples above were investigated for their ability to inhibit the enzymatic activity of various protein kinases. This was achieved by measurement of incorporation of radioactive phosphate from ATP into appropriate polypeptide substrates. Recombinant protein kinases and kinase complexes were produced or obtained commercially. Assays were performed using 96-well plates and appropriate assay buffers (typically 25 mM β-glycerophosphate, 20 mM MOPS, 5 mM EGTA, 1 mM DTT, 1 mM […], pH 7.4), into which were added 2-4 μg of active enzyme with appropriate substrates. […] Reactions were stopped on ice, followed by filtration through p81 filterplates or GF/C filterplates (Whatman Polyfiltronics, Kent, UK). After washing 3 times with 75 mM aq orthophosphoric acid, plates were dried, scintillant added and incorporated radioactivity measured in a scintillation counter (TopCount, Packard Instruments, Pangbourne, Berks, UK). Compounds for kinase assay were made up as 10 mM stocks in DMSO and diluted into 10% DMSO in assay buffer.

CDK2/cyclin A = CDK2/cyclin A (Homo sapiens, UniProt P24941); assay: Kinase assay CDK2/cyclin A; settings: Ki calculated (Cheng-Prusoff) from experimentally determined IC50 and Km,ATP; read-out: Kinase Inhibition Ki CDK2 - cyclin A
Experimental: as §1

CDK7/cyclin H = CDK7/cyclin H (Homo sapiens, UniProt P50613); assay: Kinase assay CDK7/cyclin H; settings: Ki calculated (Cheng-Prusoff) from experimentally determined IC50 and Km,ATP; read-out: Kinase Inhibition Ki CDK7 - cyclin H
Chain of CDK7/cyclin H (P50613 whole entry, species assumed): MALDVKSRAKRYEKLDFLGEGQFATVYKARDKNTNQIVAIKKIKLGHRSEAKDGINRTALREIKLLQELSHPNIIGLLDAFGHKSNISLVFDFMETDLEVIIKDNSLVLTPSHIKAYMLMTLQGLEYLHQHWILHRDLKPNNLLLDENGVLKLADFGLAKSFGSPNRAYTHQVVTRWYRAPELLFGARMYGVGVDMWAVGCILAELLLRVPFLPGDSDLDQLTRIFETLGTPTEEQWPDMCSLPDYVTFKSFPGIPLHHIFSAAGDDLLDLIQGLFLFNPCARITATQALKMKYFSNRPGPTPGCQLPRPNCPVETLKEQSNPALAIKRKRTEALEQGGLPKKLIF
Chain of CDK7/cyclin H (P51946 whole entry partner, species assumed): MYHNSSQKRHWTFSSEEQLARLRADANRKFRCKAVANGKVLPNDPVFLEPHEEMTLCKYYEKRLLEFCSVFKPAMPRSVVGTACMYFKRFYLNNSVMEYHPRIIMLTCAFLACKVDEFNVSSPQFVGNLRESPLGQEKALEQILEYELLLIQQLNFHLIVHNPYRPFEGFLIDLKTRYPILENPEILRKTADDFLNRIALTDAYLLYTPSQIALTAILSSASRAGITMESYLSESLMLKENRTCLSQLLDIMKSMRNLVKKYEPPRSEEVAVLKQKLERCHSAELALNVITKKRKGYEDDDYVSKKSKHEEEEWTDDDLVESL
Experimental: (§2) The compounds from the examples above were investigated for their ability to inhibit the enzymatic activity of various protein kinases. This was achieved by measurement of incorporation of radioactive phosphate from ATP into appropriate polypeptide substrates. Recombinant protein kinases and kinase complexes were produced or obtained commercially. Assays were performed using 96-well plates and appropriate assay buffers (typically 25 mM β-glycerophosphate, 20 mM MOPS, 5 mM EGTA, 1 mM DTT, 1 mM […], pH 7.4), into which were added 2-4 μg of active enzyme with appropriate substrates. The reactions were initiated by addition of Mg/ATP mix (15 mM MgCl2+100 μM ATP with 30-50 kBq per well of [γ-^32P]-ATP) and mixtures incubated as required at 30° C. Reactions were stopped on ice, followed by filtration through p81 filterplates or GF/C filterplates (Whatman Polyfiltronics, Kent, UK). After washing 3 times with 75 mM aq orthophosphoric acid, plates were dried, scintillant added and incorporated radioactivity measured in a scintillation counter (TopCount, Packard Instruments, Pangbourne, Berks, UK). Compounds for kinase assay were made up as 10 mM stocks in DMSO and diluted into 10% DMSO in assay buffer.

CDK2/cyclin E = CDK2/cyclin E (Homo sapiens, UniProt P24941); assay: Kinase assay CDK2/cyclin E; settings: Ki calculated (Cheng-Prusoff) from experimentally determined IC50 and Km,ATP; read-out: Kinase Inhibition Ki CDK2 - cyclin E
Experimental: as §1

CDK4/cyclin D1 = CDK4/cyclin D1 (Homo sapiens, UniProt P11802); assay: Kinase assay CDK4/cyclin D1; settings: Ki calculated (Cheng-Prusoff) from experimentally determined IC50 and Km,ATP; read-out: Kinase Inhibition Ki CDK4 - cyclin D1
Chain of CDK4/cyclin D1 (P11802 whole entry, species assumed): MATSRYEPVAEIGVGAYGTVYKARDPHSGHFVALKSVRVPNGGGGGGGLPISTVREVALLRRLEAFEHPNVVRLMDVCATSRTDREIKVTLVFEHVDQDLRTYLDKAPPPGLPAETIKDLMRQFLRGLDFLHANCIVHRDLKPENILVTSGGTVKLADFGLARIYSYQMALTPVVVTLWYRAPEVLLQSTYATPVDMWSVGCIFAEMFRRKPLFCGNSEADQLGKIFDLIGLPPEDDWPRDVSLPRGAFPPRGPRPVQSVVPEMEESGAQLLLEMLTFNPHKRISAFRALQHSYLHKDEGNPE
Chain of CDK4/cyclin D1 (P24385 whole entry partner, species assumed): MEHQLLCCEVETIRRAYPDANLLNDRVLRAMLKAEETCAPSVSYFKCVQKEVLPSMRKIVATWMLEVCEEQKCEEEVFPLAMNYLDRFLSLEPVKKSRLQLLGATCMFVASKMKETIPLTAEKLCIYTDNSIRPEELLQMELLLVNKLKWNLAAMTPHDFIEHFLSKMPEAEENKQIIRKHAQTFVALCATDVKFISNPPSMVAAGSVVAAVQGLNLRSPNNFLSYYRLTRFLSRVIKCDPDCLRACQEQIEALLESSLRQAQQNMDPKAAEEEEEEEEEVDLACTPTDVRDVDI
Experimental: as §2

CDK9/cyclin T1 = CDK9/cyclin T1 (Homo sapiens, UniProt P50750); assay: Kinase assay CDK9/cyclin T1; settings: Ki calculated (Cheng-Prusoff) from experimentally determined IC50 and Km,ATP; read-out: Kinase Inhibition Ki CDK9 - cyclin T1
Chain of CDK9/cyclin T1 (P50750 whole entry, species assumed): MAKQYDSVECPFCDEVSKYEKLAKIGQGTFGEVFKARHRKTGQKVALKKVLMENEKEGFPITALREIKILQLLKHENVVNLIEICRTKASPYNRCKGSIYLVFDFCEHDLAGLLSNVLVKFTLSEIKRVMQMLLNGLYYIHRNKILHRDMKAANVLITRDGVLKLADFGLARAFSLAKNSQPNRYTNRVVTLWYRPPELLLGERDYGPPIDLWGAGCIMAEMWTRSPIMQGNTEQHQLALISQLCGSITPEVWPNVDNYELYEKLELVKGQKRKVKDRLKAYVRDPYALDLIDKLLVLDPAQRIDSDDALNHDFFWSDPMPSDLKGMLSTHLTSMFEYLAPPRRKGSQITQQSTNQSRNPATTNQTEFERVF
Chain of CDK9/cyclin T1 (O60563 whole entry partner, species assumed): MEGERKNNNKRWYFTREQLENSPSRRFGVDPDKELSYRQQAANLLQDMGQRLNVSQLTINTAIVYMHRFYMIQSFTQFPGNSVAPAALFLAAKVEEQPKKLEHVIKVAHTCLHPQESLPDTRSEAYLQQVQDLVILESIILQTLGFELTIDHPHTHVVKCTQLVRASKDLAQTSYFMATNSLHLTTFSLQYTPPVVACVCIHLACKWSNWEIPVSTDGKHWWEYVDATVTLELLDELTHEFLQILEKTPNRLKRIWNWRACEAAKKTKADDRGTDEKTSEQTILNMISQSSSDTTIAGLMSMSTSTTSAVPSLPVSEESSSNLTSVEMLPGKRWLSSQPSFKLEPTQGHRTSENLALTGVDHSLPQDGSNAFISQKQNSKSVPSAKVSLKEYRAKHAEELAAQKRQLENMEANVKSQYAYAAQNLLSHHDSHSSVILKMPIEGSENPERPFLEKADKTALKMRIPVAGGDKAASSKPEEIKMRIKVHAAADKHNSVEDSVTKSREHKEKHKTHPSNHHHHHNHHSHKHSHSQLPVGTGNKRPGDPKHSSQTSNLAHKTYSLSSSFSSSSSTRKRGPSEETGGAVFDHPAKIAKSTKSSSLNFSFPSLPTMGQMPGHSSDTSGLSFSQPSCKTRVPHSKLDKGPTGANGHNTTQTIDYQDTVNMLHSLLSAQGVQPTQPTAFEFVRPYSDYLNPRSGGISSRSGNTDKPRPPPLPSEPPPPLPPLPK
Experimental: as §2

GSK3β = target: T1, GSK3β (Homo sapiens, UniProt P49841); assay: GSK3β in vitro kinase assay; settings: recombinant human GSK3β, 100 μM ATP
T1 construct: purchased New England Biolabs
T1 sequence (P49841 whole entry): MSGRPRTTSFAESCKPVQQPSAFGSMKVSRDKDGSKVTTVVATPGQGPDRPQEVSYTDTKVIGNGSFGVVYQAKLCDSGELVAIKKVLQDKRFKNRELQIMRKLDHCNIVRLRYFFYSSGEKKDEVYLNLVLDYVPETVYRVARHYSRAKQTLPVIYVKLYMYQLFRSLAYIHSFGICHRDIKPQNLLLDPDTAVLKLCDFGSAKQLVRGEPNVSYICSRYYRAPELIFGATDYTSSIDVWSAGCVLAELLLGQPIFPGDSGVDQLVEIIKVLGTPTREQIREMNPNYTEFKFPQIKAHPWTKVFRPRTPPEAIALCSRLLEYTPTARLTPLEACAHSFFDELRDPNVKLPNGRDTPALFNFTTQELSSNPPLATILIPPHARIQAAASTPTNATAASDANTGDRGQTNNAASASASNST
Experimental: Both isoforms of GSK3 (α and β) are involved in the regulation of glycogen synthase activity—key enzyme in the glycogen metabolism.
A 10-point titration was set up to determine the IC50 values of selected example compounds against GSK3β. Assays were performed using 96-well microtiter plates with a final volume of 25 μL per well. Each assay contained 1.5 units of GSK3β(New England Biolabs), 200 μM CREB phosphopeptide ([…]pSYR, Alta Biosciences), 20 mM Tris HCl pH7.5, 5 mM DTT, 15 mM MgCl2 supplemented with 100 μM ATP and 0.5 μCi of [γ-^32P] ATP plus or minus inhibitor in 2% DMSO. Assays were carried out for 30 minutes at 30° C. before stopping the reaction by the addition of an equal volume of 75 mM aqueous phosphoric acid. Samples were then spotted onto a p81 filterplate (Whatman) and a vacuum was applied. Wells were washed 3 times with 200 μL of dilute aqueous phosphoric acid before the addition of 50 μL Microscint 40 per well. Incorporation of radioactivity was determined on a Topcount microplate scintillation counter (Packard).

Chain of CDK1/cyclin B (P06493 whole entry, species assumed): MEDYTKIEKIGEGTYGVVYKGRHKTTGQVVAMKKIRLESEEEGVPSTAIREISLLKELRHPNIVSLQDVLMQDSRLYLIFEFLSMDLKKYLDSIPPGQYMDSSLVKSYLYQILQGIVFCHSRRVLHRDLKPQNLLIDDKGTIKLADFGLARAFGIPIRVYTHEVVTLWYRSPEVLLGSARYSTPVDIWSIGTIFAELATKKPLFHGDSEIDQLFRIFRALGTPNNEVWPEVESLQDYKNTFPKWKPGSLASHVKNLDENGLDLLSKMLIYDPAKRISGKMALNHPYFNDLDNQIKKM
Chain of CDK1/cyclin B (P14635 whole entry partner, species assumed): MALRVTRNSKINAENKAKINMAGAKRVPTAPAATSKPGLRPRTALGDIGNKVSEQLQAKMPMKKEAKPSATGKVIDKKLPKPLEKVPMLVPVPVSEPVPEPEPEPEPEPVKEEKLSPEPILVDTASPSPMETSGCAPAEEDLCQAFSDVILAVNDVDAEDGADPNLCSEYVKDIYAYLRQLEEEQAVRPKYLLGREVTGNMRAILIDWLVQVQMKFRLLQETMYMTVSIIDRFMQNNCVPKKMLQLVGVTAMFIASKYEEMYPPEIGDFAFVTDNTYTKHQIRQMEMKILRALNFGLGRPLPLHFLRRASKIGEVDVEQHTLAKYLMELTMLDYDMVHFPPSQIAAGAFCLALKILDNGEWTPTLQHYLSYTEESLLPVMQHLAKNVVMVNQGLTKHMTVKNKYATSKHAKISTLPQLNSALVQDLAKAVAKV

Cc1c(-c2ccnc(Nc3ccc(Cl)cc3)n2)sc(=O)n1C [Compound 4, 5-[2-(4-Chloro-phenylamino)-pyrimidin-4-yl]-3,4-dimethyl-3H-thiazol-2-one]
pKi (CDK1/cyclin B): 6.34
pKi (CDK2/cyclin A): 6.70
pKi (CDK7/cyclin H): 5.39
pKi (CDK2/cyclin E): 6.89
pKi (CDK4/cyclin D1): 5.80

COc1ccc(Nc2nccc(-c3sc(=O)n(C)c3C)n2)cc1 [Compound 6, 5-[2-(4-Methoxy-phenylamino)-pyrimidin-4-yl]-3,4-dimethyl-3H-thiazol-2-one]
pKi (CDK1/cyclin B): 6.59
pKi (CDK2/cyclin A): 6.72
pKi (CDK7/cyclin H): 6.04
pKi (CDK2/cyclin E): 6.42
pKi (CDK4/cyclin D1): 6.24

Cc1c(-c2ccnc(Nc3cccc(O)c3)n2)sc(=O)n1C [Compound 7, 5-[2-(3-Hydroxy-phenylamino)-pyrimidin-4-yl]-3,4-dimethyl-3H-thiazol-2-one]
pKi (CDK1/cyclin B): 6.89
pKi (CDK2/cyclin A): 7.60
pKi (CDK7/cyclin H): 6.21
pKi (CDK2/cyclin E): 7.37
pKi (CDK4/cyclin D1): 6.27

Cc1c(-c2ccnc(Nc3ccc(N(C)C)cc3)n2)sc(=O)n1C [Compound 8, 5-[2-(4-Dimethylamino-phenylamino)-pyrimidin-4-yl]-3,4-dimethyl-3H-thiazol-2-one]
pKi (CDK1/cyclin B): 6.12
pKi (CDK9/cyclin T1): 7.39
pKi (CDK2/cyclin A): 6.70
pKi (CDK7/cyclin H): 6.07
pKi (CDK2/cyclin E): 6.12
pKi (CDK4/cyclin D1): 6.28

Cc1c(-c2ccnc(Nc3ccc(N4CCOCC4)cc3)n2)sc(=O)n1C [Compound 9, 3,4-Dimethyl-5-[2-(4-morpholin-4-yl-phenylamino)-pyrimidin-4-yl]-3H-thiazol-2-one]
pKi (CDK1/cyclin B): 5.28
pKi (CDK2/cyclin A): 6.77
pKi (CDK7/cyclin H): 5.89
pKi (CDK2/cyclin E): 6.23
pKi (CDK4/cyclin D1): 6.17

Cc1c(-c2ccnc(Nc3ccc(F)c([N+](=O)[O-])c3)n2)sc(=O)n1C [Compound 10, 5-[2-(4-Fluoro-3-nitro-phenylamino)-pyrimidin-4-yl]-3,4-dimethyl-3H-thiazol-2-one]
pKi (CDK1/cyclin B): 6.55
pKi (CDK2/cyclin A): 7.68
pKi (CDK7/cyclin H): 6.28
pKi (CDK2/cyclin E): 6.89
pKi (CDK4/cyclin D1): 6.00

Cc1c(-c2ccnc(Nc3ccc(N4CCN(C)CC4)cc3)n2)sc(=O)n1C [Compound 13, 3,4-Dimethyl-5-{2-[4-(4-methyl-piperazin-1-yl)-phenylamino]-pyrimidin-4-yl}-3H-thiazol-2-one]
pKi (CDK1/cyclin B): 5.82
pKi (CDK9/cyclin T1): 7.03
pKi (CDK2/cyclin A): 6.64
pKi (CDK7/cyclin H): 6.77
pKi (CDK2/cyclin E): 6.28
pKi (CDK4/cyclin D1): 6.57

Cc1ccc(Nc2nccc(-c3sc(=O)n(C)c3C)n2)cc1I [Compound 14, 5-[2-(3-Iodo-4-methyl-phenylamino)-pyrimidin-4-yl]-3,4-dimethyl-3H-thiazol-2-one]
pKi (CDK1/cyclin B): 6.15
pKi (CDK9/cyclin T1): 7.46
pKi (CDK2/cyclin A): 6.08
pKi (CDK2/cyclin E): 6.46
pKi (CDK4/cyclin D1): 5.68

CC(=O)N1CCN(c2ccc(Nc3nccc(-c4sc(=O)n(C)c4C)n3)cc2)CC1 [Compound 17, 5-{2-[4-(4-Acetyl-piperazin-1-yl)-phenylamino]-pyrimidin-4-yl}-3,4-dimethyl-3H-thiazol-2-one]
pKi (CDK1/cyclin B): 5.16
pKi (CDK9/cyclin T1): 7.11
pKi (CDK2/cyclin A): 6.74
pKi (CDK7/cyclin H): 6.29
pKi (CDK2/cyclin E): 6.59
pKi (CDK4/cyclin D1): 6.72

Cc1c(-c2ccnc(Nc3ccc(Cl)c(CO)c3)n2)sc(=O)n1C [Compound 18, 5-[2-(4-Chloro-3-hydroxymethyl-phenylamino)-pyrimidin-4-yl]-3,4-dimethyl-3H-thiazol-2-one]
pKi (CDK1/cyclin B): 7.66
pKi (CDK9/cyclin T1): 8.92
pKi (CDK2/cyclin A): 7.23
pKi (CDK7/cyclin H): 7.55
pKi (CDK2/cyclin E): 7.55
pKi (CDK4/cyclin D1): 6.77

CCn1c(C)c(-c2ccnc(Nc3ccc(Cl)c(C(=O)O)c3)n2)sc1=O [Compound 24, 2-Chloro-5-[4-(3-ethyl-4-methyl-2-oxo-2,3-dihydro-thiazol-5-yl)-pyrimidin-2-ylamino]-benzoic acid]
pKi (CDK1/cyclin B): 5.20
pKi (CDK9/cyclin T1): 6.43
pKi (CDK2/cyclin A): 5.96
pKi (CDK2/cyclin E): 5.72
pKi (CDK4/cyclin D1): 4.62

CCn1c(C)c(-c2ccnc(Nc3ccc(N(C)C)cc3)n2)sc1=O [Compound 26, 5-[2-(4-Dimethylamino-phenylamino)-pyrimidin-4-yl]-3-ethyl-4-methyl-3H-thiazol-2-one]
pKi (CDK1/cyclin B): 5.15
pKi (CDK9/cyclin T1): 6.16
pKi (CDK2/cyclin A): 6.82
pKi (CDK7/cyclin H): 6.66
pKi (CDK2/cyclin E): 6.54
pKi (CDK4/cyclin D1): 6.55

Cc1c(-c2ccnc(Nc3cccc([N+](=O)[O-])c3)n2)sc(=O)n1CCC(C)C [Compound 30, 4-Methyl-3-(3-methyl-butyl)-5-[2-(3-nitro-phenylamino)-pyrimidin-4-yl]-3H-thiazol-2-one]
pKi (CDK1/cyclin B): 6.17
pKi (CDK9/cyclin T1): 6.72
pKi (CDK2/cyclin A): 6.25
pKi (CDK7/cyclin H): 7.51
pKi (CDK2/cyclin E): 6.54
pKi (CDK4/cyclin D1): 4.68

COc1ccc(Nc2nccc(-c3sc(=O)n(CCC(C)C)c3C)n2)cn1 [Compound 35, 5-[2-(6-Methoxy-pyridin-3-ylamino)-pyrimidin-4-yl]-4-methyl-3-(3-methyl-butyl)-3H-thiazol-2-one]
pKi (CDK1/cyclin B): 5.59
pKi (CDK9/cyclin T1): 6.31
pKi (CDK2/cyclin A): 6.72
pKi (CDK7/cyclin H): 6.70
pKi (CDK2/cyclin E): 6.18
pKi (CDK4/cyclin D1): 5.70

Cc1ccc(Nc2nccc(-c3sc(=O)n(C)c3C)n2)cc1N [Compound 39, 5-[2-(3-Amino-4-methyl-phenylamino)-pyrimidin-4-yl]-3,4-dimethyl-3H-thiazol-2-one]
pKi (CDK1/cyclin B): 7.19
pKi (CDK9/cyclin T1): 7.85
pKi (CDK2/cyclin A): 8.07
pKi (CDK7/cyclin H): 6.22
pKi (CDK2/cyclin E): 7.01
pKi (CDK4/cyclin D1): 6.82

Cc1[nH]c(=O)sc1-c1ccnc(Nc2cccc([N+](=O)[O-])c2)n1 [Compound 40, 4-Methyl-5-[2-(3-nitro-phenylamino)-pyrimidin-4-yl]-3H-thiazol-2-one]
pKi (CDK1/cyclin B): 7.77
pKi (CDK9/cyclin T1): 8.62
pKi (CDK2/cyclin A): 7.96
pKi (CDK7/cyclin H): 7.15
pKi (CDK2/cyclin E): 8.49
pKi (CDK4/cyclin D1): 6.64

Cc1ccc(Nc2nccc(-c3sc(=O)[nH]c3C)n2)cc1[N+](=O)[O-] [Compound 41, 4-Methyl-5-[2-(4-methyl-3-nitro-phenylamino)-pyrimidin-4-yl]-3H-thiazol-2-one]
pKi (CDK1/cyclin B): 7.31
pKi (CDK9/cyclin T1): 8.05
pKi (CDK2/cyclin A): 7.64
pKi (CDK7/cyclin H): 6.54
pKi (CDK2/cyclin E): 7.92
pKi (CDK4/cyclin D1): 6.89

CCn1c(C)c(-c2ccnc(Nc3ccc(Cl)c(C(F)(F)F)c3)n2)sc1=O [Compound 48, 5-[2-(4-Chloro-3-trifluoromethyl-phenylamino)-pyrimidin-4-yl]-3-ethyl-4-methyl-3H-thiazol-2-one]
pIC50 (GSK3β): 7.21
pKi (CDK9/cyclin T1): 6.64

CCn1c(C)c(-c2ccnc(Nc3ccc(Cl)c(C)c3)n2)sc1=O [Compound 51, 5-[2-(4-Chloro-3-methyl-phenylamino)-pyrimidin-4-yl]-3-ethyl-4-methyl-3H-thiazol-2-one]
pIC50 (GSK3β): 6.27
pKi (CDK1/cyclin B): 5.68
pKi (CDK9/cyclin T1): 6.72
pKi (CDK7/cyclin H): 6.01
pKi (CDK2/cyclin E): 6.57

CCn1c(C)c(-c2ccnc(Nc3cccc(S(=O)(=O)O)c3)n2)sc1=O [Compound 54, 3-[4-(3-Ethyl-4-methyl-2-oxo-2,3-dihydro-thiazol-5-yl)-pyrimidin-2-ylamino]-benzenesulfonic acid]
pIC50 (GSK3β): 6.80
